In patent US10179125B2, “Substituted pyridines as bromodomain inhibitors” (Zenith Epigenetics Ltd., priority 2014, dated 2019):

How the values were obtained:
[1] = target: T1, Brd4 bromodomain 1 (BRD4(1)) (Homo sapiens, UniProt O60885); assay: Inhibition of tetra-acetylated histone H4 binding to BET bromodomain (HTRF/FRET); details: His-tagged bromodomain 200 nM, biotinylated tetra-acetylated histone H4 peptide, 2 h room temperature
T1 construct: made in house; host or cells: E. coli BL21(DE3)
Procedure: Proteins were cloned and overexpressed with a N-terminal 6×His tag, then purified by nickel affinity followed by size exclusion chromatography. Briefly, E. coli BL21(DE3) cells were transformed with a recombinant expression vector encoding N-terminally Nickel affinity tagged bromodomains from Brd2, Brd3, Brd4. Cell cultures were incubated at 37° C. with shaking to the appropriate density and induced overnight with IPTG. The supernatant of lysed cells was loaded onto Ni-IDA column for purification, Eluted protein was pooled, concentrated and further purified by size exclusion chromatography. Fractions representing monomeric protein were pooled, concentrated, aliquoted, and frozen at −80° C. for use in subsequent experiments.
Binding of tetra-acetylated histone H4 and BET bromodomains was confirmed by a Homogenous Time Resolved Fluorescence Resonance Energy Transfer (HTRF®) method, N-terminally His-tagged bromodomains (200 nM) and biotinylated tetra-acetylated histone H4 peptide (25-50 nM, Millipore) were incubated in the presence of Europium Cryptate-labeled streptavidin (Cisbio Cat, #610SAKLB) and XL665-labeled monoclonal anti-His antibody (Cisbio Cat.1461HISXLB) in a white 96 well microtiter plate (Greiner). For inhibition assays, serially diluted test compound was added to these reactions in a 0.2% final concentration of DMSO. Duplicate wells were used for each concentration tested. Final buffer concentrations were 30 mM HEPES pH 7.4, 30 mM NaCl, 0.3 mM CHAPS, 20 mM phosphate pH 7.0, 320 mM KF, 0.08% BSA. After a 2 h incubation at room temperature, fluorescence was measured at 665 and 620 nm with a SynergyH4 plate reader (Biotek). The binding inhibitory activity was shown by a decrease in […] relative to 620 nm fluorescence. IC50 values were determined from a dose response curve.

cMYC = assay: Inhibition of cMYC expression in MV4-11 cells (real-time PCR); format: cell-based, Human; details: Homo sapiens, 3 h, cMYC mRNA, read-out: c-myc activity
Procedure: MV4-11 cells (CRL-9591) were plated at a density of 2.5×10^4 cells per well in 96 well U-bottom plates and treated with increasing concentrations of test compound or DMSO (0.1%) in IMDM media containing 10% FBS and penicillin/streptomycin, and incubated for 3 h at 37° C. Triplicate wells were used for each concentration. Cells were pelleted by centrifugation and harvested using the mRNA Catcher PLUS kit according to manufacturer's instructions. The eluted mRNA isolated was then used in a one-step quantitative real-time PCR reaction, using components of the RNA UltraSense™ One-Step Kit (Life Technologies) together with Applied Biosystems TaqMan® primer-probes for cMYC and Cyclophilin, Real-time PCR plates were run on a ViiA™7 real time PCR machine (Applied Biosystems), data was analyzed, normalizing the Ct values for cMYC to an internal control, prior to determining the fold expression of each sample, relative to the control.

Human AML MV-4-11 cells = assay: Inhibition of cell proliferation in MV4-11 cells (CellTiter Aqueous One); format: cell-based; details: 72 h; for IC50: Homo sapiens
Procedure: MV4-11 cells (CRL-9591) were plated at a density of 5×10^4 cells per well in 96 well flat bottom plates and treated with increasing concentrations of test compound or DMSO (0.1%) in IMDM media containing 10% FBS and penicillin/streptomycin. Triplicate wells were used for each concentration and a well containing only media was used as a control. Plates were incubated at 37° C., 5% CO2 for 72 h before adding 20 μL of the CellTiter Aqueous One Solution (Promega) to each well and incubated at 37° C., 5% CO2 for an additional 3-4 h. The absorbance was read at 490 nm in a spectrophotometer and the percentage of cell titer relative to DMSO-treated cells was calculated after correcting for background by subtracting the blank well's signal. IC50 values were calculated using the GraphPad Prism software.

hIL-6 = assay: Inhibition of hIL-6 mRNA transcription in LPS-stimulated U937 cells; format: cell-based, Human; details: 1 h pretreatment, LPS 3 h; for IC50: Homo sapiens, U-937, PMA-differentiated U937 cells, read-out: IL-6 activity
Procedure: Human leukemic monocyte lymphoma U937 cells (CRL-1593.2) were plated at a density of 3.2×10^4 cells per well in a 96-well plate in 100 μL RPMI-1640 containing 10% FBS and penicillin/streptomycin, and differentiated into macrophages for 3 days in 60 ng/mL PMA ([…]) at 37° C. in 5% CO2 prior to the addition of compound. The cells were pretreated for 1 h with increasing concentrations of test compound in 0.1% DMSO prior to stimulation with 1 ug/mL lipopolysaccharide from Escherichia coli. Triplicate wells were used for each concentration. The cells were incubated at 37° C., 5% CO2 for 3 h before the cells were harvested. At time of harvest, media was removed and cells were rinsed in 200 μL PBS. Cells were harvested using the mRNA Catcher PLUS kit according to manufacturer's instructions. The eluted mRNA was then used in a one-step quantitative real-time PCR reaction using components of the RNA UltraSense™ One-Step Kit (Life Technologies) together with Applied Biosystems TaqMan® primer-probes for hIL-6 and Cyclophilin. Real-time PCR plates were run on a ViiA™7 real time PCR machine (Applied Biosystems), data was analyzed, normalizing the Ct values for hIL-6 to an internal control, prior to determining the fold expression of each sample, relative to the control.

Row | IC50 [1] [µM] | IC50 (cMYC) [µM] | IC50 (Human AML MV-4-11 cells) [µM] | IC50 (hIL-6) [µM] | Structure (SMILES) | IL-6 activity (hIL-6; PMA-differentiated U937 cells) | Cell Proliferation activity (Human AML MV-4-11 cells)
1 | ≤ 0.3 | 3 to 30 | 3 to 30 | 0.3 to 3 | COc1ncc(-c2c(C)noc2C)cc1Nc1ccc(C#N)cc1 [Example 35, 4-((5-(3,5-dimethylisoxazol-4-yl)-2-methoxypyridin-3-yl)amino)benzonitrile] | – | –
2 | 0.3 to 3 | – | – | – | CNc1ncc(-c2c(C)noc2C)cc1Nc1cccnc1C [Example 69, 5-(3,5-Dimethylisoxazol-4-yl)-N2-methyl-N3-(2-methylpyridin-3-yl)pyridine-2,3-diamine] | – | –
3 | ≤ 0.3 | 3 to 30 | 3 to 30 | 0.3 to 3 | COc1ncc(-c2c(C)noc2C)cc1Nc1ccccc1F [Example 18, 5-(3,5-dimethylisoxazol-4-yl)-N-(2-fluorophenyl)-2-methoxypyridin-3-amine] | – | –
4 | 0.3 to 3 | 3 to 30 | 3 to 30 | – | COc1ncc(-c2c(C)noc2C)cc1NCc1ccc(Br)cc1 [Example 23, N-(4-bromobenzyl)-5-(3,5-dimethylisoxazol-4-yl)-2-methoxypyridin-3-amine] | – | –
5 | ≤ 0.3 | 0.3 to 3 | 0.3 to 3 | 0.3 to 3 | CCOc1ncc(-c2c(C)noc2C)cc1NCc1ccccc1 [Example 39, N-benzyl-5-(3,5-dimethylisoxazol-4-yl)-2-ethoxypyridin-3-amine] | – | –
6 | ≤ 0.3 | 0.3 to 3 | 3 to 30 | 0.3 to 3 | COc1ncc(-c2c(C)noc2C)cc1Nc1cc(C(N)=O)ccc1C [Example 62, 3-((5-(3,5-dimethylisoxazol-4-yl)-2-methoxypyridin-3-yl)amino)-4-methylbenzamide] | – | –
7 | 0.3 to 3 | 3 to 30 | 3 to 30 | 3 to 30 | COc1ncc(-c2c(C)noc2C)cc1NCCc1ccccc1 [Example 26, 5-(3,5-dimethylisoxazol-4-yl)-2-methoxy-N-phenethylpyridin-3-amine] | – | –
8 | 3 to 30 | – | – | – | COc1ncc(-c2c(C)noc2C)cc1Oc1cccnc1 [Example 15, 4-(6-methoxy-5-(pyridin-3-yloxy)pyridin-3-yl)-3,5-dimethylisoxazole] | – | –
9 | ≤ 0.3 | 0.3 to 3 | 0.3 to 3 | 0.3 to 3 | CNc1ncc(-c2c(C)noc2C)cc1NCc1nccs1 [Example 56, 5-(3,5-dimethylisoxazol-4-yl)-N2-methyl-N3-(thiazol-2-ylmethyl)pyridine-2,3-diamine] | – | –
10 | ≤ 0.3 | 0.3 to 3 | 0.3 to 3 | ≤ 0.3 | COc1ncc(-c2c(C)noc2C)cc1NCc1ccc(C#N)c(F)c1 [Example 29, 4-(((5-(3,5-dimethylisoxazol-4-yl)-2-methoxypyridin-3-yl)amino)methyl)-2-fluorobenzonitrile] | – | –
11 | ≤ 0.3 | 0.3 to 3 | 3 to 30 | 0.3 to 3 | Cc1noc(C)c1-c1cnc(Oc2ccccc2)c(NCc2ccccn2)c1 [Example 51, 5-(3,5-dimethylisoxazol-4-yl)-2-phenoxy-N-(pyridin-2-ylmethyl)pyridin-3-amine] | – | –
12 | ≤ 0.3 | 3 to 30 | 3 to 30 | 0.3 to 3 | COc1ncc(-c2c(C)noc2C)cc1NCc1cc(C)sc1C [Example 20, 5-(3,5-dimethylisoxazol-4-yl)-N-((2,5-dimethylthiophen-3-yl)methyl)-2-methoxypyridin-3-amine] | – | –
13 | ≤ 0.3 | 3 to 30 | 0.3 to 3 | 0.3 to 3 | COc1ncc(-c2c(C)noc2C)cc1NCc1ccc(C#N)cc1F [Example 28, 4-(((5-(3,5-dimethylisoxazol-4-yl)-2-methoxypyridin-3-yl)amino)methyl)-3-fluorobenzonitrile] | – | –
14 | ≤ 0.3 | 3 to 30 | 3 to 30 | 3 to 30 | COc1ncc(-c2c(C)noc2C)cc1NCc1ccc2ccccc2c1 [Example 44, 5-(3,5-dimethylisoxazol-4-yl)-2-methoxy-N-(naphthalen-2-ylmethyl)pyridin-3-amine] | – | –
15 | ≤ 0.3 | 0.3 to 3 | 3 to 30 | – | COc1ncc(-c2c(C)noc2C)cc1NCc1ccc(C#N)s1 [Example 50, 5-(((5-(3,5-dimethylisoxazol-4-yl)-2-methoxypyridin-3-yl)amino)methyl)thiophene-2-carbonitrile] | Not Active | –
16 | 0.3 to 3 | – | 3 to 30 | – | Cc1noc(C)c1-c1cnc(OCc2ccccc2)c(NCc2ccccc2)c1 [Example 25, N-benzyl-2-(benzyloxy)-5-(3,5-dimethylisoxazol-4-yl)pyridin-3-amine] | – | –
17 | 0.3 to 3 | – | – | – | COc1ncc(-c2c(C)noc2C)cc1NCc1ccc(C(F)(F)F)cc1 [Example 16, 5-(3,5-dimethylisoxazol-4-yl)-2-methoxy-N-(4-(trifluoromethyl)benzyl)pyridin-3-amine] | – | –
18 | ≤ 0.3 | – | 3 to 30 | 0.3 to 3 | COc1ncc(-c2c(C)noc2C)cc1Nc1cccc(C)c1 [Example 7, 5-(3,5-dimethylisoxazol-4-yl)-2-methoxy-N-(m-tolyl)pyridin-3-amine] | – | –
19 | 0.3 to 3 | 3 to 30 | 3 to 30 | – | COc1ncc(-c2c(C)noc2C)cc1NC(C)c1ccc(Cl)cc1 (stereo not shown) [Example 22, N-(1-(4-chlorophenyl)ethyl)-5-(3,5-dimethylisoxazol-4-yl)-2-methoxypyridin-3-amine] | – | –
20 | ≤ 0.3 | 3 to 30 | – | 3 to 30 | COc1ncc(-c2c(C)noc2C)cc1-c1c(C)noc1C [Example 34, 4,4′-(2-methoxypyridine-3,5-diyl)bis(3,5-dimethylisoxazole)] | – | –
21 | ≤ 0.3 | – | 0.3 to 3 | 0.3 to 3 | COc1cccc(Nc2cc(-c3c(C)noc3C)cnc2OC)c1 [Example 13, 5-(3,5-dimethylisoxazol-4-yl)-2-methoxy-N-(3-methoxyphenyl)pyridin-3-amine] | – | –
22 | ≤ 0.3 | – | 3 to 30 | 0.3 to 3 | COc1ncc(-c2c(C)noc2C)cc1NCc1ncccn1 [Example 48, 5-(3,5-dimethylisoxazol-4-yl)-2-methoxy-N-(pyrimidin-2-ylmethyl)pyridin-3-amine] | – | –
23 | ≤ 0.3 | – | – | – | COc1ncc(-c2c(C)noc2C)cc1NCc1ncccc1Cl [Example 49, N-((3-chloropyridin-2-yl)methyl)-5-(3,5-dimethylisoxazol-4-yl)-2-methoxypyridin-3-amine] | – | Not Active
